A short description of assay [1]: cells. Particulars: Homo sapiens, MCF-10A, read-out: MCF10A IC50.
The target in assay [2] is H1047R PIK3CA enzyme (Homo sapiens, UniProt P42336, H1047R). The assay is described as follows: ADP-Glo Biochemical PIK3CA Kinase Assay. (In ADP-Glo the light output rises with the ADP produced.)

The IC50 is the midpoint of a concentration-inhibition curve.

Structures are written as SMILES.

Sequence of H1047R PIK3CA enzyme (P42336 whole entry H1047R): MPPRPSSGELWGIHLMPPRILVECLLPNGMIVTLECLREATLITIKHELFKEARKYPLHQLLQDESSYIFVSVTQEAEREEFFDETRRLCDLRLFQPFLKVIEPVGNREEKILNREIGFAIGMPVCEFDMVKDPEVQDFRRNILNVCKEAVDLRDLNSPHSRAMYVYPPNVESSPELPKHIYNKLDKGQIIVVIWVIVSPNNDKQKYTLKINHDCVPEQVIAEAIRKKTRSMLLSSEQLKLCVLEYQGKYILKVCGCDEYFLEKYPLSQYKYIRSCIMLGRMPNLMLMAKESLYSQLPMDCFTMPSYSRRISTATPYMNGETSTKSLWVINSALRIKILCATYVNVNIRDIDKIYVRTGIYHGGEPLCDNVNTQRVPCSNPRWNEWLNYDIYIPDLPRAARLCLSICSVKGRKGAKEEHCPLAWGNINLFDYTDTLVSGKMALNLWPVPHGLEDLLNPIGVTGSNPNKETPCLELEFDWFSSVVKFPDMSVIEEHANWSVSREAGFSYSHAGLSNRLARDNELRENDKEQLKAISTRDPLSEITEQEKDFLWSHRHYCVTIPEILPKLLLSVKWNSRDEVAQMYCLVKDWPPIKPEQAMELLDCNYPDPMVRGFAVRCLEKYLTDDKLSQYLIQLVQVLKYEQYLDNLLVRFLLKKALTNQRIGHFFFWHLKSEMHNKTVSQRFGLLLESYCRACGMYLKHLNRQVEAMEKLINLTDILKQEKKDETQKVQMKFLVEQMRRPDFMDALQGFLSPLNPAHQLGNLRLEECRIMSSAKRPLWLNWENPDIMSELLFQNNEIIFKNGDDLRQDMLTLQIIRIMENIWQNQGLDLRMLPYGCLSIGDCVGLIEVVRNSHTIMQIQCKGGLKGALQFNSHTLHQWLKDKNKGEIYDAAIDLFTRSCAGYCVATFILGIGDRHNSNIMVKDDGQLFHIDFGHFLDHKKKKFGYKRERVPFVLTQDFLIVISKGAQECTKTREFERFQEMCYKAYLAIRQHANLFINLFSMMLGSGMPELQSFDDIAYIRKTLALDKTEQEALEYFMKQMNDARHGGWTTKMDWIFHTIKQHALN
Sequence of H1047R PIK3CA enzyme (P27986 whole entry partner): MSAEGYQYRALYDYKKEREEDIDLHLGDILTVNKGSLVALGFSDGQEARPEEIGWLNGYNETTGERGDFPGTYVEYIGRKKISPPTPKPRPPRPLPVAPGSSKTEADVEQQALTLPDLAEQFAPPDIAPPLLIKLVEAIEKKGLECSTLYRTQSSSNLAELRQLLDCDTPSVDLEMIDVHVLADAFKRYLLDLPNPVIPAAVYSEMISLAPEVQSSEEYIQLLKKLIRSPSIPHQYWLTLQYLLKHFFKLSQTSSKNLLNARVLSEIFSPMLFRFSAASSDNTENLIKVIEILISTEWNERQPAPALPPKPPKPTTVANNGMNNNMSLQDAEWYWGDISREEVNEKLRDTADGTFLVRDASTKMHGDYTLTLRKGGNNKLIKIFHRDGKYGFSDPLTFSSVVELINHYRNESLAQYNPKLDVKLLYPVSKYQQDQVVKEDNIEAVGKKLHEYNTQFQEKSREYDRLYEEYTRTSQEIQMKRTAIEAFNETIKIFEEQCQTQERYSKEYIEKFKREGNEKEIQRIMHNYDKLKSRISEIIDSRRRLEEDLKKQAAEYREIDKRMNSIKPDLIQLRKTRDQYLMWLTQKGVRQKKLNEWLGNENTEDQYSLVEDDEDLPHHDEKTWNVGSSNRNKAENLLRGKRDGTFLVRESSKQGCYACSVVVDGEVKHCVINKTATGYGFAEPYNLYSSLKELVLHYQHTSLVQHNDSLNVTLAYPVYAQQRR

With `O=C(Nc1cc(Nc2nc3ccccc3[nH]2)cc2c1C(c1cc(F)ccc1Cl)NC2=O)c1cc(F)cc(C(F)(F)F)c1` (centres unmarked) [Compound I-993], the values for the IC50 in assay [1] and in assay [2] were 1000 to 5000 nM and not above 100 nM, respectively.

Turning to `O=C(Nc1cc(Nc2cn[nH]c2)cc2c1C(c1cc(F)ccc1Cl)NC2=O)c1cc(F)cc(C(F)(F)F)c1` (centres unmarked) [Compound I-994], the results for the IC50 in assay [1] and in assay [2] were less than 1000 nM and not above 100 nM, respectively.

With `O=C(Nc1cc(Nc2ncc[nH]2)cc2c1C(c1cc(F)ccc1Cl)NC2=O)c1cc(F)cc(C(F)(F)F)c1` (centres unmarked) [Compound I-999], the IC50 in assay [1] is 1000 to 5000 nM; in assay [2] it was not above 100 nM.

For the compound `O=C(Nc1cc(-c2ccc3nccnc3c2)cc2c1C(c1cc(F)ccc1Cl)NC2=O)c1cc(F)cc(C(F)(F)F)c1` (centres unmarked) [Compound I-1012], the IC50 is less than 1000 nM in assay [1] and not above 100 nM in assay [2].

In the case of `O=C(Nc1cc(-c2cccc3nccn23)cc2c1C(c1cc(F)ccc1Cl)NC2=O)c1cc(F)cc(C(F)(F)F)c1` (centres unmarked) [Compound I-1013], the IC50 is less than 1000 nM in assay [1] and not above 100 nM in assay [2].

For the compound `O=C(Nc1cc(Br)cc2c1C(c1cc(F)ccc1C(F)(F)F)NC2=O)c1cc(F)cc(C(F)(F)F)c1` (centres unmarked) [Compound I-1014], the IC50 in assay [1] was less than 1000 nM; in assay [2], not above 100 nM.

With `O=C(Nc1cc(-n2ccnc2)cc2c1C(c1cc(F)ccc1Cl)NC2=O)c1cc(F)cc(C(F)(F)F)c1` (centres unmarked) [Compound I-1015], the figures for the IC50 in assay [1] and in assay [2] were less than 1000 nM and not above 100 nM, respectively.

Regarding `Cn1cc(-c2cc(NC(=O)c3cc(F)cc(C(F)(F)F)c3)c3c(c2)C(=O)NC3c2cc(F)ccc2Cl)ncc1=O` (centres unmarked) [Compound I-1016], the IC50 in assay [1] was less than 1000 nM; in assay [2] it was not above 100 nM.

Consider `Cc1[nH]ncc1Nc1cc(NC(=O)c2cc(F)cc(C(F)(F)F)c2)c2c(c1)C(=O)NC2c1cc(F)ccc1Cl` (centres unmarked) [Compound I-1017], for which the IC50 was less than 1000 nM in assay [1] and not above 100 nM in assay [2].

On to `CS(=N)(=O)Cc1cc(NC(=O)c2cc(F)cc(C(F)(F)F)c2)c2c(c1)C(=O)NC2c1cc(F)ccc1Cl` (centres unmarked) [Compound I-1018], for which the IC50 in assay [1] was less than 1000 nM; in assay [2], not above 100 nM.

Regarding `O=C(Nc1cc(C2CC(O)C2)cc2c1C(c1cc(F)ccc1Cl)NC2=O)c1cc(F)cc(C(F)(F)F)c1` (centres unmarked) [Compound I-1019], the IC50 in assay [1] was less than 1000 nM; in assay [2] it was not above 100 nM.

As to `COCCc1cc(NC(=O)c2cc(F)cc(C(F)(F)F)c2)c2c(c1)C(=O)NC2c1cc(F)ccc1Cl` (centres unmarked) [Compound I-1020], the IC50 in assay [1] is less than 1000 nM; in assay [2] it was not above 100 nM.

In the case of `O=C(Nc1cc(-c2cnc3ncnn3c2)cc2c1[C@H](c1cc(F)ccc1Cl)NC2=O)c1cc(F)cc(C(F)(F)F)c1` [Compound I-1024], the IC50 was less than 1000 nM in assay [1] and not above 100 nM in assay [2].

For `O=C(Nc1cc(-c2nc3cnccc3[nH]2)cc2c1C(c1cc(F)ccc1Cl)NC2=O)c1cc(F)cc(C(F)(F)F)c1` (centres unmarked) [Compound I-1025], the IC50 is 1000 to 5000 nM in assay [1] and not above 100 nM in assay [2].

Consider `O=C(Nc1cc(-c2nc3ncccc3[nH]2)cc2c1C(c1cc(F)ccc1Cl)NC2=O)c1cc(F)cc(C(F)(F)F)c1` (centres unmarked) [Compound I-1026], for which the values for the IC50 in assay [1] and in assay [2] were less than 1000 nM and not above 100 nM, respectively.

As for `O=C1CCc2c(cccc2-c2cc(NC(=O)c3cc(F)cc(C(F)(F)F)c3)c3c(c2)C(=O)NC3c2cc(F)ccc2Cl)N1` (centres unmarked) [Compound I-1028], the IC50 is less than 1000 nM in assay [1] and not above 100 nM in assay [2].

For the compound `Cn1cc2cc(-c3cc(NC(=O)c4cc(F)cc(C(F)(F)F)c4)c4c(c3)C(=O)NC4c3cc(F)ccc3Cl)ccc2n1` (centres unmarked) [Compound I-1029], the values for the IC50 in assay [1] and in assay [2] were less than 1000 nM and not above 100 nM, respectively.

On to `Cn1nncc1-c1cc(NC(=O)c2cc(F)cc(C(F)(F)F)c2)c2c(c1)C(=O)NC2c1cc(F)ccc1Cl` (centres unmarked) [Compound I-1030], for which the IC50 was less than 1000 nM in assay [1] and not above 100 nM in assay [2].

As to `O=C(Nc1cc(-c2cccc3nonc23)cc2c1C(c1cc(F)ccc1Cl)NC2=O)c1cc(F)cc(C(F)(F)F)c1` (centres unmarked) [Compound I-1031], the IC50 in assay [1] was less than 1000 nM; in assay [2] it was not above 100 nM.

On to `Cc1cc2ncc(-c3cc(NC(=O)c4cc(F)cc(C(F)(F)F)c4)c4c(c3)C(=O)NC4c3cc(F)ccc3Cl)cn2n1` (centres unmarked) [Compound I-1032], for which the IC50 is less than 1000 nM in assay [1] and not above 100 nM in assay [2].

Turning to `O=C(Nc1cc(-c2ccc3[nH]ncc3c2)cc2c1C(c1cc(F)ccc1Cl)NC2=O)c1cc(F)cc(C(F)(F)F)c1` (centres unmarked) [Compound I-1033], the IC50 is less than 1000 nM in assay [1] and not above 100 nM in assay [2].

Take `O=C(Nc1cc(-c2ccnn2CC2CC2)cc2c1C(c1cc(F)ccc1Cl)NC2=O)c1cc(F)cc(C(F)(F)F)c1` (centres unmarked) [Compound I-1038]: the IC50 in assay [1] was less than 1000 nM; in assay [2], not above 100 nM.

For the compound `Cc1noc2ncc(-c3cc(NC(=O)c4cc(F)cc(C(F)(F)F)c4)c4c(c3)C(=O)NC4c3cc(F)ccc3Cl)cc12` (centres unmarked) [Compound I-1039], the IC50 in assay [1] was less than 1000 nM; in assay [2] it was not above 100 nM.

Turning to `O=C(Nc1cc(N2CCn3ncnc3C2)cc2c1C(c1cc(F)ccc1Cl)NC2=O)c1cc(F)cc(C(F)(F)F)c1` (centres unmarked) [Compound I-1040], the values for the IC50 in assay [1] and in assay [2] were 1000 to 5000 nM and not above 100 nM, respectively.

For the compound `O=C(Nc1cc(-c2cccc3c2CCNC3=O)cc2c1C(c1cc(F)ccc1Cl)NC2=O)c1cc(F)cc(C(F)(F)F)c1` (centres unmarked) [Compound I-1042], the IC50 is less than 1000 nM in assay [1] and not above 100 nM in assay [2].

`O=C1COCc2cc(-c3cc(NC(=O)c4cc(F)cc(C(F)(F)F)c4)c4c(c3)C(=O)NC4c3cc(F)ccc3Cl)ccc2N1` (centres unmarked) [Compound I-1043]: the half-inhibitory concentration (IC50) in assay [1] is less than 1000 nM; in assay [2] it was not above 100 nM.

For the compound `O=C(Nc1cc(-c2cnn3cccnc23)cc2c1C(c1cc(F)ccc1Cl)NC2=O)c1cc(F)cc(C(F)(F)F)c1` (centres unmarked) [Compound I-1046], the IC50 in assay [1] is less than 1000 nM; in assay [2], not above 100 nM.

On to `O=C(Nc1cc(-c2cnc3ccnn3c2)cc2c1C(c1cc(F)ccc1Cl)NC2=O)c1cc(F)cc(C(F)(F)F)c1` (centres unmarked) [Compound I-1047], for which the IC50 in assay [1] is less than 1000 nM; in assay [2], not above 100 nM.

As for `O=C(Nc1cc(-c2ccc3c(c2)C(=O)NCCO3)cc2c1C(c1cc(F)ccc1Cl)NC2=O)c1cc(F)cc(C(F)(F)F)c1` (centres unmarked) [Compound I-1048], the half-inhibitory concentration (IC50) is less than 1000 nM in assay [1] and not above 100 nM in assay [2].

Regarding `O=C(Nc1cc(-c2ccnc3[nH]ccc23)cc2c1C(c1cc(F)ccc1Cl)NC2=O)c1cc(F)cc(C(F)(F)F)c1` (centres unmarked) [Compound I-1049], the results for the IC50 in assay [1] and in assay [2] were less than 1000 nM and not above 100 nM, respectively.

Take `O=C(Nc1cc(-c2ccc3ncnn3c2)cc2c1[C@@H](c1cc(Cl)ccc1Cl)NC2=O)c1cc(F)cc(C(F)(F)F)c1` [Compound I-1054]: the IC50 in assay [1] is less than 1000 nM; in assay [2], not above 100 nM.

On to `O=C(Nc1cc(-c2ccc3ncnn3c2)cc2c1C(c1cc(F)ccc1C(F)F)NC2=O)c1cc(F)cc(C(F)(F)F)c1` (centres unmarked) [Compound I-1057], for which the IC50 in assay [1] is less than 1000 nM; in assay [2] it was not above 100 nM.

For the compound `O=C(Nc1cc(-c2ccc3ncnn3c2)cc2c1[C@@H](c1cc(F)c(F)cc1Cl)NC2=O)c1cc(F)cc(C(F)(F)F)c1` [Compound I-1061], the 50% inhibitory concentration (IC50) is less than 1000 nM in assay [1] and not above 100 nM in assay [2].

Consider `O=C(Nc1cc(OCCO)cc2c1C(c1cc(F)ccc1Cl)NC2=O)c1cc(F)cc(C(F)(F)F)c1` (centres unmarked) [Compound I-1064], for which the half-maximal inhibitory concentration (IC50) in assay [1] was less than 1000 nM; in assay [2], not above 100 nM.

Source of the values: US12581252B2, “Substituted pyrrolo[3,4-b]pyridines as PI3K-α inhibitors” (Relay Therapeutics, Inc., priority 2020, dated 2026).
